Assay results taken from patent US20240316047A1, “INHIBITORS OF RNA HELICASE DHX9 AND USES THEREOF” (ACCENT THERAPEUTICS, INC., priority 2022, published 2024).

Target: Human recombinant DHX9 protein (Homo sapiens (Human), UniProt Q08211)
Assay: DHX9 ATPase assay (ADP-Glo)
Type: biochemical
Conditions: for IC50: read-out: DHX9 Biochemical Inflection Point

Sequence of Human recombinant DHX9 protein (Q08211 whole entry): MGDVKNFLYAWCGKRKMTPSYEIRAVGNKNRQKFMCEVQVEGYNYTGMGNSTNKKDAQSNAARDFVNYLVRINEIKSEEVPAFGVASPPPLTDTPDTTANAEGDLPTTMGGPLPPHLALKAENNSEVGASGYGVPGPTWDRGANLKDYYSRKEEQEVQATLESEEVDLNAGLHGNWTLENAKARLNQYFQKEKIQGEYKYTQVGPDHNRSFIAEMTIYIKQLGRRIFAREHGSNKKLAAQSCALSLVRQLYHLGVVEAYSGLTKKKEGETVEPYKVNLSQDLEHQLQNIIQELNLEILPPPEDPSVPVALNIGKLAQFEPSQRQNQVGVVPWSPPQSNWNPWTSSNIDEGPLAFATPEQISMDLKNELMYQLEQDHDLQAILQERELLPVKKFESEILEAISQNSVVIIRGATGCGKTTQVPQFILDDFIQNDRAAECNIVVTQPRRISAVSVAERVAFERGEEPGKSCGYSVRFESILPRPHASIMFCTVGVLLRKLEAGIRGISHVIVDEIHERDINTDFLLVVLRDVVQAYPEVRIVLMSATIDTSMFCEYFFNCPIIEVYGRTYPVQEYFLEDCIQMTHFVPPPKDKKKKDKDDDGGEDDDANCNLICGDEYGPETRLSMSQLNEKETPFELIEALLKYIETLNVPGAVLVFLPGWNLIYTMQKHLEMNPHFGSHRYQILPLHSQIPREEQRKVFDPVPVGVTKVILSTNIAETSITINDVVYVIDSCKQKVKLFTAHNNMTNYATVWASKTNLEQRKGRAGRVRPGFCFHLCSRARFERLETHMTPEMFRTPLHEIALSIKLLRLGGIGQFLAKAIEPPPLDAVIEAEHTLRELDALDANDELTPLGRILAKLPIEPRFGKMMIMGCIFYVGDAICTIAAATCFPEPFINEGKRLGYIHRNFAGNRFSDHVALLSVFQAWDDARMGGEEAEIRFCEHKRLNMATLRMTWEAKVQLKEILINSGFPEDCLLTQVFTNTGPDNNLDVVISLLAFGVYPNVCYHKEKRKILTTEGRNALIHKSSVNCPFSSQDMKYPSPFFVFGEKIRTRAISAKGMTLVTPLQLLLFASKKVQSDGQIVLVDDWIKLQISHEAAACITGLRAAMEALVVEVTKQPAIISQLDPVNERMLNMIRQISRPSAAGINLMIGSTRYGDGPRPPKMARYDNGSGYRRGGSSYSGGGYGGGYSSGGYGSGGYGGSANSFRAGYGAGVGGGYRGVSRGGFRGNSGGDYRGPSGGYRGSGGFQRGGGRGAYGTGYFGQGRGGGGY

| DHX9 Biochemical Max Inhibition | IC50 | SMILES |
| --- | --- | --- |
| 73.8% | 4.7 nM | Cc1cc(C(=O)Nc2cc(Cl)cc(NS(C)(=O)=O)c2)cn1-c1ccc(N2CC3(COC3)C2)cn1 [Example 276] |
| 62.7% | 123 nM | Cc1sc(C(=O)Nc2cc(Cl)cc(NS(C)(=O)=O)c2)cc1-c1ccccc1 [Example 11] |
| 68.3% | 54.9 nM | Cc1sc(C(=O)Nc2cc(Cl)cc(NS(C)(=O)=O)c2)cc1-c1ncc(F)cc1Cl [Example 359] |
| 76.9% | 4.4 nM | Cc1cc(C(=O)Nc2cc(Cl)cc(NS(C)(=O)=O)c2)cn1-c1ccc(N(C)C2CCOC2)cn1 (centres unmarked) [Example 269] |
| 96 | 132 nM | Cn1cc(C(=O)Nc2cc(Cl)cc(NS(C)(=O)=O)c2)cc1-c1ncc(N2CCC3(CC2)CC3)cc1F [Example 468] |
| 55.5% | 104 nM | CS(=O)(=O)Nc1cc(Cl)cc(NC(=O)c2cccc(-n3cccn3)c2)c1 [Example 117] |
| 62.3% | 40.6 nM | CSc1cccnc1-n1cc(C(=O)Nc2cc(Cl)cc(NS(C)(=O)=O)c2)cn1 [Example 219] |
| 85 | 3.6 nM | CS(=O)(=O)Nc1cc(Cl)cc(NC(=O)c2cc(-c3ccc(F)cn3)n(CCO)c2)c1 [Example 689] |
| 80.4% | 1.5 nM | Cc1cc(C(=O)Nc2cc(Cl)cc(NS(C)(=O)=O)c2)cn1-c1ccc(F)cn1 [Example 390] |
| 74.1% | 9.7 nM | Cc1cc(C(=O)Nc2cc(Cl)cc(NS(C)(=O)=O)c2)cn1-c1ccc(N2CCCC2)cn1 [Example 270] |
| 64% | 89.4 nM | CS(=O)(=O)Nc1cc(Cl)cc(NC(=O)c2cc3ccccn3c2)c1 [Example 209] |
| 70.4 | 14.6 nM | Cn1cc(C(=O)Nc2cc(Cl)cc(NS(C)(=O)=O)c2)cc1-c1ncc(OC2CN(CC(F)F)C2)cc1F [Example 614] |
| 72.4% | 15.9 nM | CCOc1cnc(-c2cc(C(=O)Nc3cc(Cl)cc(NS(C)(=O)=O)c3)cn2C)nc1 [Example 172] |
| 72.1 | 16.4 nM | Cn1cc(C(=O)Nc2cc(Cl)cc(NS(C)(=O)=O)c2)cc1-c1ncc(N2CC(F)C2)cn1 [Example 598] |
| 82.2 | 11.1 nM | Cn1cc(C(=O)Nc2cc(Cl)cc(NS(C)(=O)=O)c2)cc1-c1ncc(N2CC(F)C2)cc1F [Example 466] |
| 72.4% | 1.8 nM | Cc1cc(C(=O)Nc2cc(Cl)cc(NS(C)(=O)=O)c2)cn1-c1ccc(N2CCN(C)C(=O)C2)cn1 [Example 94] |
| 67.4% | 20.2 nM | CS(=O)(=O)Nc1cc(Cl)cc(NC(=O)c2cnn(-c3ccc(N4CCOCC4=O)cn3)c2)c1 [Example 180] |
| 57% | 997 nM | CS(=O)(=O)Nc1cc(Cl)cc(NC(=O)c2cc3cccc(F)c3s2)c1 [Example 297] |
| 80.6 | 52.4 nM | CC(C)(O)c1cc(C(=O)Nc2cc(Cl)cc(NS(C)(=O)=O)c2)cn1-c1ccccn1 [Example 650] |

Second part, the compound before the results:

| SMILES | DHX9 Biochemical Max Inhibition | IC50 |
| --- | --- | --- |
| CCOc1cnc(-c2cc(C(=O)Nc3cc(Cl)cc(NS(C)(=O)=O)c3)sc2C)nc1 [Example 335] | 79% | 10.7 nM |
| CS(=O)(=O)Nc1cc(Cl)cc(NC(=O)c2cnn([C@@H]3CC[C@H]3O)c2)c1 (single isomer, unassigned) [Example 306a] | 70.6% | 127 nM |
| CS(=O)(=O)Nc1cc(Br)cc(NC(=O)c2cc(-c3ncccn3)cs2)c1 [Example 25] | 61.3% | 5.6 nM |
| Cc1sc(C(=O)Nc2cc(Cl)cc(NS(C)(=O)=O)c2)cc1-c1ncc(N2CC3(C2)CC(F)(F)C3)cc1F [Example 511] | 89.8 | 51.1 nM |
| Cc1cccnc1-c1csc(C(=O)Nc2cc(Br)cc(NS(C)(=O)=O)c2)c1 [Example 33] | 61.7% | 4.8 nM |
| Cc1sc(C(=O)Nc2cc(Cl)cc(NS(C)(=O)=O)c2)cc1N1C(=O)N(c2ccccn2)C(C)(C)C1=O [Example 685] | 64.3 | 117 nM |
| CS(=O)(=O)Nc1cc(Br)cc(NC(=O)c2cnn(C3CCCCC3)c2)c1 [Example 48] | 54.1% | 93.1 nM |
| Cc1cc(C#N)cnc1-c1cc(C(=O)Nc2cc(Cl)cc(NS(C)(=O)=O)c2)sc1C [Example 376] | 64.1% | – |
| Cn1cc(C(=O)Nc2cc(Cl)cc(NS(=O)(=O)C3CC3)c2)cc1-c1ccc(N2CC(F)(F)C2)cn1 [Example 530] | 83.7 | 427 nM |
| Cc1sc(C(=O)Nc2cc(Cl)cc(NS(C)(=O)=O)c2)cc1-c1ncc(F)cc1-c1ccn(C)c(=O)c1 [Example 605] | 67.5 | 24.6 nM |
| CN1CCN(c2csc(C(=O)Nc3cc(Cl)cc(NS(C)(=O)=O)c3)c2)CC1=O [Example 661] | 78.6 | 3.2 nM |
| Cc1sc(C(=O)Nc2cc(Cl)cc(NS(C)(=O)=O)c2)cc1-c1ncc(N2CCC3(CC2)CC3(F)F)cc1F [Example 478] | 66.8 | 150 nM |
| CS(=O)(=O)Nc1cc(Cl)cc(NC(=O)c2cnn(-c3ncccc3OCc3c[nH]cn3)c2)c1 [Example 254] | 64.1% | 59.5 nM |
| Cc1cc(C(=O)Nc2cc(F)cc(NS(C)(=O)=O)c2)n[nH]1 [Example 3] | 76.4% | 648 nM |
| CS(=O)(=O)Nc1cc(F)cc(NC(=O)c2cc(-c3cccnc3)cs2)c1 [Example 105, N-(3-fluoro-5-(methylsulfonamido)phenyl)-4-(pyridin-3-yl)thiophene-2-carboxamide] | 71.7% | 80.3 nM |
| CS(=O)(=O)Nc1cc(Cl)cc(NC(=O)c2cc(-c3ccccc3OCc3ccccc3)cs2)c1 [Example 111] | 68.2% | 250 nM |
| Cc1sc(C(=O)Nc2cc(Cl)cc(NS(C)(=O)=O)c2)cc1-c1ncc(N2CCC3(COC3)C2)cc1F [Example 512] | 74.3 | 10.9 nM |
| CS(=O)(=O)Nc1cc(Cl)cc(NC(=O)c2cc(-c3ncc(C(F)(F)F)cc3F)cs2)c1 [Example 371] | 65.3% | 140 nM |
| Cc1sc(C(=O)Nc2cc(Cl)cc(NS(C)(=O)=O)c2)cc1-c1ncc(OC(C)(C)C)cn1 [Example 559] | 72.175 | 33.4 nM |
| Cc1sc(C(=O)Nc2cc(Cl)cc(NS(C)(=O)=O)c2)cc1-c1ncc(N(C)S(C)(=O)=O)cn1 [Example 720] | 72.6 | 25.2 nM |
| CS(=O)(=O)Nc1cc(Br)cc(NC(=O)c2cnn(-c3cc(C#N)ccc3OCc3ccccc3)c2)c1 [Example 67] | 54% | 154 nM |
| COc1cc(C(F)(F)F)cnc1-c1cc(C(=O)Nc2cc(Cl)cc(NS(C)(=O)=O)c2)sc1C [Example 550] | 99.8 | 25 nM |
| Cc1cc(C(=O)Nc2cc(Cl)cc(NS(C)(=O)=O)c2)cn1-c1ccc(N2C3CCC2CC3)cn1 [Example 523] | 64.1 | 31.4 nM |
